Experimental data: ChEMBL document CHEMBL1201862, “PubChem BioAssay data set” (2004)
Calls of active or inactive are those of the source.

Assays:
Beta-galactosidase = Beta-galactosidase (Escherichia coli, UniProt Q8VNN2); test: PubChem AID 485352; assay type: functional
[1] = biological target: T1, Type-1 angiotensin II receptor (Homo sapiens, UniProt P30556); test: AT1 receptor antagonists, dose response, selectivity assay for APJ receptor antagonist project, cell-based, uHTS hits (AID 463214); assay type: functional;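 note: antagonist potency against angiotensin II stimulated AT1 response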
T1 sequence (P30556 whole entry): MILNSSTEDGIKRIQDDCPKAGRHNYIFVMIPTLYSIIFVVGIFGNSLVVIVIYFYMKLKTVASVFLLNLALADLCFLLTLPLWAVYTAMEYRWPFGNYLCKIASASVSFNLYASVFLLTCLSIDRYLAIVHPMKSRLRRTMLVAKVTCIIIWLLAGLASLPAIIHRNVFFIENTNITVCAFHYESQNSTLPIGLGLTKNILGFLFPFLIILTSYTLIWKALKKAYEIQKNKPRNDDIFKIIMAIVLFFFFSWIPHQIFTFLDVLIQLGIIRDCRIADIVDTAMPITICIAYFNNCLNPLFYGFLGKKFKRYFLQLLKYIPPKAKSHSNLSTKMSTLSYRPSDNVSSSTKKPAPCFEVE

[2] = biological target: T2, Carboxy-terminal domain RNA polymerase II polypeptide A small phosphatase 1 (Homo sapiens, UniProt Q9GZU7); test: inhibitors of CTDSP1, concentration-response testing, biochemical assay, absorbance-based, actives from ultra-high-throughput screening (AID 540297); assay type: functional
T2 sequence (Q9GZU7 whole entry): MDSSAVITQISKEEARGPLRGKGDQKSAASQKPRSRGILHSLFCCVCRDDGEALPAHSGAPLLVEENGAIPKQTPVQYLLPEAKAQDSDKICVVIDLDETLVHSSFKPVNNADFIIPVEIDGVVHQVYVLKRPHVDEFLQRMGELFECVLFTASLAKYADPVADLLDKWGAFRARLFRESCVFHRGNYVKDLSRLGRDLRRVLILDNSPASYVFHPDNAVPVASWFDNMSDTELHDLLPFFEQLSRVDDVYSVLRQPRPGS

[3] = biological target: T3, Low molecular weight phosphotyrosine protein phosphatase (Homo sapiens, UniProt P24666); assay type: functional; details: read-out: IC50_Mean
T3 sequence (P24666 whole entry): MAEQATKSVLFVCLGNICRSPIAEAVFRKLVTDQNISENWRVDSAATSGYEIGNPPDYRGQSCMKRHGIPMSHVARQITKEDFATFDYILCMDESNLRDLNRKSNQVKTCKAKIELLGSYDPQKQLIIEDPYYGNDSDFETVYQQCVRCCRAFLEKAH

[4] = biological target: T3, Low molecular weight phosphotyrosine protein phosphatase; assay type: functional; details: read-out: IC50_Mean; remark: listed apart in the source
[5] = miR-122 activators in hepatoma reporter cells, dose response, cell-based, Huh7 psiCHECK-miR122, Renilla luciferase, cherry-picked (AID 651956); assay type: functional;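 note: huh7 hepatoma cells stably carrying a psiCHECK-2 miR-122 sensor plasmid; renilla luciferase signal reporting endogenous miR-122 activity after 48 h compound exposure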
Leucine aminopeptidase = biological target: T4, Leucine aminopeptidase (Plasmodium falciparum 3D7, UniProt Q8IL11); test: P. falciparum M17LAP inhibitors, primary screen, biochemical, fluorogenic H-Leu-NHMec substrate, 1536-well (AID 1619); assay type: functional
T4 sequence (Q8IL11 whole entry): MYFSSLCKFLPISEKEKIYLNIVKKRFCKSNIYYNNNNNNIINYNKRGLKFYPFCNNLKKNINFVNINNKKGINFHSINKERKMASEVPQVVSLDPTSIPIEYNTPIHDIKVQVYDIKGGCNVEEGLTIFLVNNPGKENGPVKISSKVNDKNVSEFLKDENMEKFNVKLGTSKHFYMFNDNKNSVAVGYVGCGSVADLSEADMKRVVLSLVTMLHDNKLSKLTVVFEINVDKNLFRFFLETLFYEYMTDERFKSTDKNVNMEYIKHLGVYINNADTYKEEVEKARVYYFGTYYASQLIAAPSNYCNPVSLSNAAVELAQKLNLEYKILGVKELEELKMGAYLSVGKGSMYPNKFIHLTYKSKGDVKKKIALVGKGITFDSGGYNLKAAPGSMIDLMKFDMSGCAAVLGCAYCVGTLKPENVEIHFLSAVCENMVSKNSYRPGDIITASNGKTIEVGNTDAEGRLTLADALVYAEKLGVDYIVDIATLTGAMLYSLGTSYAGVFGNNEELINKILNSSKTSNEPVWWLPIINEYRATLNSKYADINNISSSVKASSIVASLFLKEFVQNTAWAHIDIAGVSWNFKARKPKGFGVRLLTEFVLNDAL

[6] = THP-1 cell cytotoxicity, dose response, cytotoxicity control for non-replicating M. tuberculosis project (AID 489025); assay type: functional
[7] = biological target: T5, Long-chain-fatty-acid--AMP ligase FadD28 (Mycobacterium tuberculosis, UniProt P9WQ59); test: Fluorescence polarization aasay to screen for inhibitors that compete for the binding of FadD28 to a bisubstrate Measured in Biochemical System Using Plate Reader - 2147-01_Inhibitor_Dose_CherryPick_Activity.; assay type: functional, Mycobacterium tuberculosis H37Rv
T5 sequence (P9WQ59 whole entry): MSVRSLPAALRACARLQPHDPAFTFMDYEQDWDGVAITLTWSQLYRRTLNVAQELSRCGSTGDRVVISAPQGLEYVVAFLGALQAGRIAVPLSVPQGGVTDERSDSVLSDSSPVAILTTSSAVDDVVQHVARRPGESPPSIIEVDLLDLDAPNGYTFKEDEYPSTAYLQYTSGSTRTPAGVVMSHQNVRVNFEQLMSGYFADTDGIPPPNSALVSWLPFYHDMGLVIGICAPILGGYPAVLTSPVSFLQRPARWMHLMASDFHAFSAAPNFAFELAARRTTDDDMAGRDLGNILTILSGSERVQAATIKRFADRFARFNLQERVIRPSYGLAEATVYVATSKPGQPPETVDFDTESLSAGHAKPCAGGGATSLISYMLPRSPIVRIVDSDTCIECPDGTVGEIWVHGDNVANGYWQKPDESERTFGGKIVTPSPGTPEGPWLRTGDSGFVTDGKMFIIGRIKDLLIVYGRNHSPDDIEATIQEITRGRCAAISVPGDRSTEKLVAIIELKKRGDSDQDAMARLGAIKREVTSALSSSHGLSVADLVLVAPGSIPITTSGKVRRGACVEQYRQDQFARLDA

[8] = Luminescence Cell-Based Dose Retest to Confirm Inhibitors of Cancer Stem Cells. [Related pubchem assays (depositor defined):AID2717, AID2721]; assay type: functional; details: Homo sapiens
[9] = biological target: T6, Ubiquitin-conjugating enzyme E2 N (Homo sapiens, UniProt P61088); assay type: functional;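 note: Dose-response confirmation in a TR-FRET assay detecting UBC13-driven polyubiquitin chain formation, inhibition measured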
T6 sequence (P61088 whole entry): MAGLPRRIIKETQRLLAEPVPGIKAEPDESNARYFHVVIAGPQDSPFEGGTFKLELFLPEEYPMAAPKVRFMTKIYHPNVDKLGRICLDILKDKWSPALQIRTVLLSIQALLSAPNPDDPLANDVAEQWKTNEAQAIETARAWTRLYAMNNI

[10] = biological target: T7, Replicative DNA helicase DnaB (Mycobacterium tuberculosis, UniProt P9WMR3); test: DnaB intein splicing inhibitors, dose response, biochemical, cell-free fluorescence (AID 449749); assay type: functional
T7 sequence (P9WMR3 whole entry): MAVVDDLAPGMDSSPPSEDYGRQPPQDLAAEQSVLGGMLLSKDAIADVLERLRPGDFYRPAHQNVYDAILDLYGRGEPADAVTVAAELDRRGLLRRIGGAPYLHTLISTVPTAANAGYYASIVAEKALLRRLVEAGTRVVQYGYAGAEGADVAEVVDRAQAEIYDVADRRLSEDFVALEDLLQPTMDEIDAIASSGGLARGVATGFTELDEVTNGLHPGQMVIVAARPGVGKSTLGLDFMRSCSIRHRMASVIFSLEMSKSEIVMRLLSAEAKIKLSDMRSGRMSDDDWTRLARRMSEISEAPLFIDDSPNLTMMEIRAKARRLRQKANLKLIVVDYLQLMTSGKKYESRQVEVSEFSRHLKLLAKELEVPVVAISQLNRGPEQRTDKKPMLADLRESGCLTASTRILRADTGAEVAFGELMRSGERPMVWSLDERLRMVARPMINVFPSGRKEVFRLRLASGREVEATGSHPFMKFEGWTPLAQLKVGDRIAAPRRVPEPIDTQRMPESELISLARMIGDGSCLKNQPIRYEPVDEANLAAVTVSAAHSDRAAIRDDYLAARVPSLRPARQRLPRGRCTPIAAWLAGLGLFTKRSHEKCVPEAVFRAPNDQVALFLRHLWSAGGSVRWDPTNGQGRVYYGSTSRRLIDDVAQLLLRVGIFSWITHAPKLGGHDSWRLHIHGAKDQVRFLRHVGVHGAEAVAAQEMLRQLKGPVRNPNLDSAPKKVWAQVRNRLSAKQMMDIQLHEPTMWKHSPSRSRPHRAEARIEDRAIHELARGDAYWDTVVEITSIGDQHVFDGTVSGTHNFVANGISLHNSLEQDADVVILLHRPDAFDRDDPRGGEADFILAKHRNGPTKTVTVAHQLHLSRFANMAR

Protein RecA = biological target: T8, Protein RecA (Mycobacterium tuberculosis, UniProt P9WHJ3); test: Fluorescence Cell-Free Homogeneous Dose Retest to Identify Inhibitors of RecA-Intein Splicing Activity. [Related pubchem assays (depositor defined):AID2097, AID2223, AID489010, AID492950]; assay type: functional
T8 sequence (P9WHJ3 whole entry): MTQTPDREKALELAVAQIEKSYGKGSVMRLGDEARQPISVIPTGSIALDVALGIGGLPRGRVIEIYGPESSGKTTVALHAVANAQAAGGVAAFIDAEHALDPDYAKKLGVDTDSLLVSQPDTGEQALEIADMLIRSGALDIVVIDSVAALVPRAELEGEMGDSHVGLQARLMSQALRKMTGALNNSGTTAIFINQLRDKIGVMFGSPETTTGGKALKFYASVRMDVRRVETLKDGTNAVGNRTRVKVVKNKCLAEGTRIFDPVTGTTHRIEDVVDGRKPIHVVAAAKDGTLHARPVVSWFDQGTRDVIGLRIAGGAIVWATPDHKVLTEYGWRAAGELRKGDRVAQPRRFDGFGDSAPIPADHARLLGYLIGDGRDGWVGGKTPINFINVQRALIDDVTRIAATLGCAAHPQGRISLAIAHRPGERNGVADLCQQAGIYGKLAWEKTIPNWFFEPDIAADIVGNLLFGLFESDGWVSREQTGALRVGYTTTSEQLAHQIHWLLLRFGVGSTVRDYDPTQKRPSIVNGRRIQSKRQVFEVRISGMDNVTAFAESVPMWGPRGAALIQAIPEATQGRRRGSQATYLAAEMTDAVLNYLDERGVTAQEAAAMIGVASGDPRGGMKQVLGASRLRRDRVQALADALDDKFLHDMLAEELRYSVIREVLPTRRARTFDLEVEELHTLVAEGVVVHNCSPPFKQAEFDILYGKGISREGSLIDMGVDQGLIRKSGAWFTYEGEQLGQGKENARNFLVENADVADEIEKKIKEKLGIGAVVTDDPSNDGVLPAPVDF

[11] = biological target: T9, Hepatocyte nuclear factor 4-alpha (Homo sapiens, UniProt P41235); assay type: functional, cell-based;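 note: biochemical luminescence-based dose-response counterscreen measuring inhibition of HNF4 dimerization, run alongside a screen for blockers of ABHD5–perilipin-5 interaction; split luciferase complementation of HNF4 fusion proteins in cell lysate measuring dimerization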
T9 sequence (P41235 whole entry): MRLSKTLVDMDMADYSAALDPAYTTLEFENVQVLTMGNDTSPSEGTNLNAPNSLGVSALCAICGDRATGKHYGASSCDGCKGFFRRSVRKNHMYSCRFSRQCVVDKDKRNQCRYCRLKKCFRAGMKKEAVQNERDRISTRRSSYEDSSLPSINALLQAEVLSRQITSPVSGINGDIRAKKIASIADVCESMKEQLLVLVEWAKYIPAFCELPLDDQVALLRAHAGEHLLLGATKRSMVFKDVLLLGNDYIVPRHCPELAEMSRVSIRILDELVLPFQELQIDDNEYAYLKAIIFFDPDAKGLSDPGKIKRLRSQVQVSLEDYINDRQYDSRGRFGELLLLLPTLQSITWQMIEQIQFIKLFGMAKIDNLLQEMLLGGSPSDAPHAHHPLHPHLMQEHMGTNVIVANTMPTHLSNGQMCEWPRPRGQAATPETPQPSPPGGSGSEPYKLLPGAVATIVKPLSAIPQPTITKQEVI

Cytochrome P450 2C9 = Cytochrome P450 2C9 (Homo sapiens, UniProt P11712)
Fatty acid synthase [12] = biological target: T10, Fatty acid synthase (Homo sapiens, UniProt P49327); test: FAS thioesterase domain inhibitors, dose response, biochemical, endpoint fluorescence intensity, uHTS hits (AID 624327); assay type: functional;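 note: fluorescence from hydrolysis of an O-methyl fluorescein acyl ester substrate by the enzyme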
Fatty acid synthase [13] = biological target: T10, Fatty acid synthase; test: FAS thioesterase domain inhibitors, dose response, biochemical, kinetic fluorescence intensity (AID 624326); assay type: functional;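 note: rate of fluorescence rise from hydrolysis of a fluorogenic O-methyl fluorescein ester substrate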

T10 sequence (P49327 whole entry, the tested form may be a part): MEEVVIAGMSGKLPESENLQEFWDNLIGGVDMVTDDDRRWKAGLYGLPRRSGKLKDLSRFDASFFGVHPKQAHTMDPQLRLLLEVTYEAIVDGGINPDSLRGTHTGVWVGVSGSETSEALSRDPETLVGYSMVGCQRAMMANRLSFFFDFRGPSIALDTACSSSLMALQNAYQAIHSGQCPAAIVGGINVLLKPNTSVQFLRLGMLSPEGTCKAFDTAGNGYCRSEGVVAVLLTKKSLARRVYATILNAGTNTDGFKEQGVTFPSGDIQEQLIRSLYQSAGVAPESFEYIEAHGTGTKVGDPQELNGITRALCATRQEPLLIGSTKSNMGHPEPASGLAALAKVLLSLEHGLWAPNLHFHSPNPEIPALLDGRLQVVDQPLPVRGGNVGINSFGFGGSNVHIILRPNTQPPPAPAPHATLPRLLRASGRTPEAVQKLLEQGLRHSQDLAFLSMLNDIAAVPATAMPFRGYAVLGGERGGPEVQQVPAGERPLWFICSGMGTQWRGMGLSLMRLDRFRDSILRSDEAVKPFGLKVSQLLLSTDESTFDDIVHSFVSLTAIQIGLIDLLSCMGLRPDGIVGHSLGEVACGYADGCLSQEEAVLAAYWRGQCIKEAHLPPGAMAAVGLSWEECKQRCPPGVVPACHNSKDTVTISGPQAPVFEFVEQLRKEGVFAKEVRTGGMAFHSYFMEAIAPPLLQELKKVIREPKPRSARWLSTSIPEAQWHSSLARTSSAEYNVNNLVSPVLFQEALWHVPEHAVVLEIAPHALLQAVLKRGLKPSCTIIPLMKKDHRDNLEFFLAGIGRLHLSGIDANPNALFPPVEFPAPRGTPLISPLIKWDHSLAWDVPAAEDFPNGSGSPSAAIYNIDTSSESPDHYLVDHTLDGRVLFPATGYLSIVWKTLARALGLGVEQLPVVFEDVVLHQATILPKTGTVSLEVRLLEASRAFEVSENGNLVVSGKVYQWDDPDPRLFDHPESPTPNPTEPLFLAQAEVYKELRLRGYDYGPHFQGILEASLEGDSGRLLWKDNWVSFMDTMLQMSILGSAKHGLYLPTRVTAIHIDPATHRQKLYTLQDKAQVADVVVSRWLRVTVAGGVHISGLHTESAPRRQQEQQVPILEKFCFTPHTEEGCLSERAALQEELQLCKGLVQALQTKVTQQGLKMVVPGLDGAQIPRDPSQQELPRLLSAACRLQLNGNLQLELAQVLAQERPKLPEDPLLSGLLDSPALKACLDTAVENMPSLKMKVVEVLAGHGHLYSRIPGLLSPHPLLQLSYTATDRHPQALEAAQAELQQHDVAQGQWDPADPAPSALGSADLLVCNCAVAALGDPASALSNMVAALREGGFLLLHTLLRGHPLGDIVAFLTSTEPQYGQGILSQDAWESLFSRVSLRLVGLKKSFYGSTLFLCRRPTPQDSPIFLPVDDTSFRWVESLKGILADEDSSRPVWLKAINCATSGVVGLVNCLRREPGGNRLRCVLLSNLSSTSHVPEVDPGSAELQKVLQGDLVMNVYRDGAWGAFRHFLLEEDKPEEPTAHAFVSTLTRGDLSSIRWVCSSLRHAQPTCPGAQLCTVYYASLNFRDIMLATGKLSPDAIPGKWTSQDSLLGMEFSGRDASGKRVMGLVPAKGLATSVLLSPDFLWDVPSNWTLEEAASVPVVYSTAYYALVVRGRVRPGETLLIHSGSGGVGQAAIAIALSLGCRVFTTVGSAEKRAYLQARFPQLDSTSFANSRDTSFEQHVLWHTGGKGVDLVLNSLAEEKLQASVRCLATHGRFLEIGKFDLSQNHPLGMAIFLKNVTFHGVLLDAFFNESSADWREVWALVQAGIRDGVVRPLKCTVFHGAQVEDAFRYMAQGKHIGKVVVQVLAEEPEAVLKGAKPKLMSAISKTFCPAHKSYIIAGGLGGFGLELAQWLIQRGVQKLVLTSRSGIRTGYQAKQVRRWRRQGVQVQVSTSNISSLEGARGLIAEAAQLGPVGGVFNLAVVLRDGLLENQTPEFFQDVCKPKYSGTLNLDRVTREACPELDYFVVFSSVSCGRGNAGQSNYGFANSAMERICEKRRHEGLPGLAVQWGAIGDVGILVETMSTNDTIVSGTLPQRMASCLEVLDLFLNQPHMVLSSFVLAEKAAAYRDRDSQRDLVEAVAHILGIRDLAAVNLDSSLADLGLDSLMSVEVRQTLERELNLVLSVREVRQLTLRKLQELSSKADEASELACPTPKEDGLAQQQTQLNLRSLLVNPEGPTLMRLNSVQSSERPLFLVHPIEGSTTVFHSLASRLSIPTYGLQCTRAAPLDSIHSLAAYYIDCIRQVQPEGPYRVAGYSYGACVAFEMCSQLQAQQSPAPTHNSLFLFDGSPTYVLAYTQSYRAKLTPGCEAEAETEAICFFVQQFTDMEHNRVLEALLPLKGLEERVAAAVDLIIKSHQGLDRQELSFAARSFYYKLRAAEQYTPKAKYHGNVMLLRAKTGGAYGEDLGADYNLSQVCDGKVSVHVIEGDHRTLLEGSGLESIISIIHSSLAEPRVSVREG
Chain of Cytochrome P450 2C9 (P11712 whole entry, the tested form may be a part): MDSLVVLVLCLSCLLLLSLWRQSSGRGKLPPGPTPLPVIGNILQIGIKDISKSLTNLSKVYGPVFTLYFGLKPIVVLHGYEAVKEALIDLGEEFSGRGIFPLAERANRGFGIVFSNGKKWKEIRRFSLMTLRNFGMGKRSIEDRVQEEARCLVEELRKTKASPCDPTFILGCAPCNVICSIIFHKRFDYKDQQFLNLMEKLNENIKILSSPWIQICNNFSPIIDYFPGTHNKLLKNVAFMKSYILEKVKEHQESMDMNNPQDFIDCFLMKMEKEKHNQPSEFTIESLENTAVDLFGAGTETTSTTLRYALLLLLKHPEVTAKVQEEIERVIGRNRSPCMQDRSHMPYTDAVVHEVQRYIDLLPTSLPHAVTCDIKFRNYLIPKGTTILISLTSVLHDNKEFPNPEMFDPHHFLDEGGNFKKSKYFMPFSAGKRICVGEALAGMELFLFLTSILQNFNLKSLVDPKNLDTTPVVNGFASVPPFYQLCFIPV
Chain of Beta-galactosidase (Q8VNN2 whole entry): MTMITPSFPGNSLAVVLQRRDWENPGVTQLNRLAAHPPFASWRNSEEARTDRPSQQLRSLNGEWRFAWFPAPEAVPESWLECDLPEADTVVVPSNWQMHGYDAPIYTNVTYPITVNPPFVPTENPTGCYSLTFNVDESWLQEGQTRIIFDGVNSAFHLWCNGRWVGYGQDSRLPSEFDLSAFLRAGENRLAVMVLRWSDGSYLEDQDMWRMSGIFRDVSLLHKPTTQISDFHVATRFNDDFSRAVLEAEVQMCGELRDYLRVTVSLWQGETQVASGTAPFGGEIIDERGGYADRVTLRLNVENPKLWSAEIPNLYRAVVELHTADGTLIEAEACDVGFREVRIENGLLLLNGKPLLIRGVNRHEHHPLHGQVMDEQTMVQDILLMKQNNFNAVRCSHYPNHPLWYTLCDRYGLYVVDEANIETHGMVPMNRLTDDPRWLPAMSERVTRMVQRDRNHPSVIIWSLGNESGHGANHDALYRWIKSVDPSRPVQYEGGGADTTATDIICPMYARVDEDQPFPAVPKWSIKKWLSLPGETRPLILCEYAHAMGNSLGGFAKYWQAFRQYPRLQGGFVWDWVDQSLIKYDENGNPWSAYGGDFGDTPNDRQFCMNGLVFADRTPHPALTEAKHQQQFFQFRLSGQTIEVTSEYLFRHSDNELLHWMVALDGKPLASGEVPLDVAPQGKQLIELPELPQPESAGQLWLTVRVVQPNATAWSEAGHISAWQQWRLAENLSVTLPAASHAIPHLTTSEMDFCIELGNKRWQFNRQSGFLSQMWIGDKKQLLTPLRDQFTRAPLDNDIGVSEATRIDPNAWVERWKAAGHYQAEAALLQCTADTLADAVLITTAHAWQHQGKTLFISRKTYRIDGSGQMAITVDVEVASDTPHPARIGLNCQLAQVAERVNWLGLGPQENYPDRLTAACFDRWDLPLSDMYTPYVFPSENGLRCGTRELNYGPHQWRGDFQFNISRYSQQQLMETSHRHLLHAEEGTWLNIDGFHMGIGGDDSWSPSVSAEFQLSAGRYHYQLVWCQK

COc1ccc(/C=C/C(=O)NC(=S)Nc2cc([N+](=O)[O-])ccc2O)cc1OC
EC50 (Beta-galactosidase): > 40 µM (inactive)
IC50 [1]: > 40 µM (not active)
IC50 [2]: 4.85 µM (active)
IC50 [3]: > 80 µM (inactive)
IC50 [4]: 17.8 µM (active)

O=C(c1ccc(CNc2c(NC3CCCCC3)c(=O)c2=O)cc1)N1CCc2ccccc21
AC50 [5]: 0.583 µM (active)

O=C(Nc1sc2c(c1C(=O)O)CCCCC2)c1ccccc1F
IC50 (Leucine aminopeptidase): 71 µM (active)
CC50 [6]: > 40 µM (active)
AC50 [7]: > 100 µM (inactive)

CCN(CC)CCOc1ccc(/C(=C(\Cl)c2ccccc2)c2ccccc2)cc1.O=C(O)CC(O)(CC(=O)O)C(=O)O [CLOMIPHENE CITRATE]
AC50 [8]: 0.997 µM (active)
IC50 [9]: > 20 µM (inactive)
AC50 [10]: 3.79 µM (active)
EC50 (Protein RecA): 12.1 µM (active)
IC50 [11]: 10.8 µM (inactive)
AC50 (Cytochrome P450 2C9): inconclusive

O=C(O)CCCCCNc1nc(-c2ccccc2)nc2ccccc12
IC50 [3]: 26.9 µM (inactive)
IC50 [4]: 12 µM (active)

COCC(=O)N(C)C[C@H]1Oc2cc(-c3ccccc3F)ccc2S(=O)(=O)N([C@H](C)CO)C[C@H]1C
AC50 [5]: 2.56 µM (active)

CCCN(CC(=O)Nc1ccc(F)c(F)c1F)C(=O)c1cc([N+](=O)[O-])ccc1N1CCOCC1
IC50 (Fatty acid synthase [12]): 14.9 µM (active)
IC50 (Fatty acid synthase [13]): 10.6 µM (active)

O=C(COC(=O)c1cc([N+](=O)[O-])ccc1N1CCOCC1)Nc1ncc(Cl)cc1Cl
IC50 (Fatty acid synthase [12]): 8.79 µM (active)
IC50 (Fatty acid synthase [13]): 7.24 µM (active)

Cc1ccc(NC(=O)CCNS(=O)(=O)c2cc(Br)cnc2N)cc1Cl
IC50 (Fatty acid synthase [12]): 10.3 µM (active)
IC50 (Fatty acid synthase [13]): 16.1 µM (active)

CCNC(=O)C[C@H]1CC[C@@H]2[C@@H](COc3ccc(NC(=O)Nc4cccc(Cl)c4)cc3C(=O)N2C)O1
AC50 [5]: 42 µM (active)
